From patent publication US11166460B2, “α-amino acrylate microbicide, and preparation method therefor and uses thereof” (priority 2017, dated 2021)
Converted amounts (≈) assume the structure as drawn. Read-outs that look alike come from different tables or passages of the source.

Legend:
[1] = tested on: tobacco mosaic virus (TMV); assay: Anti-TMV curative activity (treatment mode), live friction inoculation on tobacco seedlings; format: in vivo; details: for inhibition at 100 µg/mL: Tobacco mosaic virus, read-out: Anti-TMV activity, Curative effect (inhibition), 100 μg/mL, tobacco seedlings, checked on seventh day
[2] = tested on: tobacco mosaic virus (TMV); assay: Anti-TMV inactivation activity (inactivation mode), compound mixed with TMV before inoculation of tobacco leaves; format: in vivo; details: Tobacco mosaic virus, read-out: Anti-TMV activity, Inactivation effect (inhibition)
[3] = tested on: tobacco mosaic virus (TMV); assay: Anti-TMV protective activity (protection mode), live friction inoculation on tobacco seedlings; format: in vivo; details: Tobacco mosaic virus, read-out: Anti-TMV activity, Protection effect (inhibition)
[4] = tested on: tobacco mosaic virus (TMV); assay: Anti-TMV inducing activity (induction mode), tobacco seedlings; format: in vivo; details: Tobacco mosaic virus, read-out: Anti-TMV activity, Induction effect (inhibition), 100 μg/mL, tobacco seedlings
Alternaria solani = assay: Fungicidal activity, fungi growth rate method, AS; format: cell-based; details: Alternaria solani, 50 μg/mL
Botrytis cinerea = assay: Fungicidal activity, fungi growth rate method, BC; format: cell-based; details: Botrytis cinerea, 50 μg/mL
Cercospora arachidicola = assay: Fungicidal activity, fungi growth rate method, CA; format: cell-based; details: Mycosphaerella arachidis, 50 μg/mL
wheat Gibberella zeae = assay: microbe, parasite or virus in culture; format: cell-based; details: Fusarium graminearum
[5] = tested on: Phytophthora infestans (Mont) de Bary; assay: microbe, parasite or virus in culture; format: cell-based; details: Phytophthora infestans
Physalospora piricola = assay: Fungicidal activity, fungi growth rate method, PP; format: cell-based; details: 50 μg/mL
Pellicularia sasakii = assay: Fungicidal activity, fungi growth rate method, PS; format: cell-based; details: 50 μg/mL
Rhizoctonia cerealis = assay: Fungicidal activity, fungi growth rate method, RC; format: cell-based; details: Ceratobasidium cereale, 50 μg/mL
Sclerotinia sclerotiorum = assay: microbe, parasite or virus in culture; format: cell-based; details: Sclerotinia sclerotiorum; for inhibition at 50 µg/mL: 50 μg/mL
[6] = read-out: Fungicidal activity, inhibition, AS
[7] = read-out: Fungicidal activity, inhibition, BC
[8] = read-out: Fungicidal activity, inhibition, CA
[9] = read-out: Fungicidal activity, inhibition, GZ
[10] = read-out: Fungicidal activity, inhibition, PI
[11] = read-out: Fungicidal activity, inhibition, PP
[12] = read-out: Fungicidal activity, inhibition, PS
[13] = read-out: Fungicidal activity, inhibition, RC
[14] = read-out: Fungicidal activity (inhibition) against SS: Sclerotinia sclerotiorum
[15] = read-out: Fungicidal activity, inhibition, SS
[16] = read-out: Fungicidal activity (inhibition) against CA: Cercospora arachidicola
[17] = read-out: Fungicidal activity (inhibition) against PI: Phytophthora infestans (Mont) de Bary

| SMILES | inhibition at 100 µg/mL [1] [%] | inhibition at 100 µg/mL [2] [%] | inhibition at 100 µg/mL [3] [%] | inhibition at 100 µg/mL [4] [%] | inhibition at 50 µg/mL (Alternaria solani; [6]) [%] | inhibition at 50 µg/mL (Botrytis cinerea; [7]) [%] | inhibition at 50 µg/mL (Cercospora arachidicola; [8]) [%] | inhibition at 50 µg/mL (wheat Gibberella zeae; [9]) [%] | inhibition at 50 µg/mL [5, 10] [%] | inhibition at 50 µg/mL (Physalospora piricola; [11]) [%] | inhibition at 50 µg/mL (Pellicularia sasakii; [12]) [%] | inhibition at 50 µg/mL (Rhizoctonia cerealis; [13]) [%] | inhibition at 50 µg/mL (Sclerotinia sclerotiorum; [14]) [%] | inhibition at 50 µg/mL (Sclerotinia sclerotiorum; [15]) [%] | melting point [°C] | other results |
| --- | --- | --- | --- | --- | --- | --- | --- | --- | --- | --- | --- | --- | --- | --- | --- | --- |
| O=C(NCc1ccc(F)cc1)/C(=C/c1ccccc1)NC(=O)c1ccccc1 [Compound 55, N-[(1Z)-2-phenyl-1-[[(4-fluorophenylmethyl)amino]carbonyl]ethenyl]benzamide] | 45 | 59 | 0 | 4 | 28 | 12 | 10 | 34 | 19 | 21 | 12 | 12 | 60 to 80 | 75 | 199 to 201 |  |
| CC(C)(C)OC(=O)N1CCC(c2nc(/C=C(\NC(=O)c3ccccc3)C(=O)NCc3ccc(Br)cc3)cs2)CC1 [Compound 47, N-[(1Z)-2-[4-[2-[4-(1-Boc-piperidine)]thiazol]]-1-[[(4-bromophenylmethyl)amino]carbonyl]ethenyl]benzamide] | 56 | 0 | 41 | 53 | 36 | 32 | 22 | 22 | 20 | 22 | 19 | 21 | 80 to 95 | 82 | 101 to 103 |  |
| O=C(N/C(=C\c1ccccc1)C(=O)N1CCC(O)(c2ccc(Br)cc2)CC1)c1ccco1 [Compound 13, (Z)-N-[1-[[4-(4-bromophenyl)-4-hydroxy-1-piperidinyl]carbonyl]-2-phenylethenyl]-2-furamide] | 47 | 69 | 26 | 30 | 15 | 24 | 16 | 33 | 27 | 16 | 21 | 22 |  | 95 | 138 to 140 | EC90 (Sclerotinia sclerotiorum; read-out: EC90 against S. sclerotiorum in vitro): 195 µg/mL (≈ 394 µM) |
| COc1ccc(/C=C(\NC(=O)c2ccccc2)C(=O)N2CCC(O)(c3ccc(Br)cc3)CC2)cc1 [Compound 16, (Z)-N-[1-[[4-(4-bromophenyl)-4-hydroxy-1-piperidinyl]carbonyl]-2-(4-methoxyphenyl)ethenyl]benzamide] | 0 | 1 | 57 | 8 | 23 | 29 | 55 | 2 | 33 | 5 | 15 | 13 |  | 67 | 208 to 210 | inhibition at 50 µg/mL (Cercospora arachidicola; [16]): 55%; inhibition at 50 µg/mL [5, 17]: 33% |
| O=C(NCc1ccc(Br)cc1)/C(=C/c1ccccc1)NC(=O)C1CCCCC1 [Compound 60, N-[(1Z)-2-phenyl-1-[[(4-bromophenylmethyl)amino]carbonyl]ethenyl]cyclohexanecarboxamide] | 16 | 53 | 28 | 18 | 21 | 18 | 18 | 57 | 16 | 12 | 9 | 23 |  | 38 | 215 to 216 |  |
| O=C(N/C(=C\c1ccc(C(F)(F)F)cc1)C(=O)N1CCC(O)(c2ccc(Br)cc2)CC1)c1ccccc1 [Compound 20, (Z)-N-[1-[[4-(4-bromophenyl)-4-hydroxy-1-piperidinyl]carbonyl]-2-(4-trifluoromethylphenyl)ethenyl]benzamide] | 0 | 0 | 52 | 53 | 17 | 7 | 16 | 7 | 21 | 10 | 21 | 19 |  | 67 | 137 to 139 |  |
| O=C(N/C(=C\c1ccccc1)C(=O)N1CCC(O)(c2ccc(Br)cc2)CC1)C1CC1 [Compound 1, (Z)-N-[1-[[4-(4-bromophenyl)-4-hydroxy-1-piperidinyl]carbonyl]-2-phenylethenyl]cyclopropanecarboxamide] | 53 | 83 | 48 | 11 | 21 | 21 | 16 | 26 | 27 | 10 | 14 | 29 | 80 to 95 | 83 | 163 to 164 | Anti-TMV activity, Curative effect (inhibition) ([1]; 100 μg/mL, tobacco seedlings, checked on seventh day): 54% |
| O=C(NCc1ccccc1)/C(=C/c1ccccc1)NC(=O)c1ccccc1 [Compound 53, N-[(1Z)-2-phenyl-1-[[(phenylmethyl)amino]carbonyl]ethenyl]benzamide] | 55 | 58 | 33 | 0 | 16 | 16 | 18 | 23 | 5 | 13 | 8 | 5 | 75 | 75 | 169 to 171 | inhibition at 50 µg/mL (Alternaria solani; read-out: Fungicidal activity (inhibition) against AS: Alternaria solani): < 30%; inhibition at 50 µg/mL (Botrytis cinerea; read-out: Fungicidal activity (inhibition) against BC: Botrytis cinerea): ≤ 20%; inhibition at 50 µg/mL (Cercospora arachidicola; [16]): < 25%; inhibition at 50 µg/mL (wheat Gibberella zeae; read-out: Fungicidal activity (inhibition) against GZ: wheat Gibberella zeae): < 45%; inhibition at 50 µg/mL [5, 17]: < 25%; inhibition at 50 µg/mL (Physalospora piricola; read-out: Fungicidal activity (inhibition) against PP: Physalospora piricola): < 20%; inhibition at 50 µg/mL (Pellicularia sasakii; read-out: Fungicidal activity (inhibition) against PS: Pellicularia sasakii): < 30%; inhibition at 50 µg/mL (Rhizoctonia cerealis; read-out: Fungicidal activity (inhibition) against RC: Rhizoctonia cerealis): < 20% |
| CCOC(=O)c1csc(C2CCN(C(=O)/C(=C/c3ccccc3)NC(=O)c3ccccc3)CC2)n1 [Compound 30, (Z)-N-[1-[[[4-[2-(ethylthiazole-4-carboxylate)]]-1-piperidinyl]carbonyl]-2-phenylethenyl]benzamide] | 3 | 0 | 0 | 2 | 13 | 17 | 7 | 11 | 9 | 2 | 13 | 4 | 80 to 95 | 82 | 114 to 115 |  |
| O=C(NCc1ccc(Br)cc1)/C(=C/c1ccccc1)NC(=O)C1CC1 [Compound 59, N-[(1Z)-2-phenyl-1-[[(4-bromophenylmethyl)amino]carbonyl]ethenyl]cyclopropanecarboxamide] | 80 | 39 | 41 | 26 | 16 | 18 | 22 | 16 | 10 | 8 | 19 | 24 | 60 to 80 | 75 | 187 to 189 |  |
